# Reference: publication PMC9139002, “Naphthoquinone as a New Chemical Scaffold for Leishmanicidal Inhibitors of Leishmania GSK-3” (Biomedicines, 2022)
# Like-named read-outs stand apart in the source and are kept apart here.
# Legend:
# [1] = test system: L. pifanoi axenic amastigotes; test: Leishmanicidal activity on axenic amastigotes (MTT reduction); format: cell-based, Leishmania pifanoi
# [2] = test system: L. infantum promastigotes; test: Leishmanicidal activity on promastigotes (MTT reduction), Table 2 and Table S1; format: cell-based, Leishmania infantum
# Method: (§1) Both activities were assessed by inhibition of MTT (3-(4,5-dimethylthiazol-2-yl)-2,5-diphenyltetrazolium bromide) reduction, as described in [34]. Samples were made in triplicate and assays were repeated at least twice. DMSO content in the medium was adjusted to 0.25% v/v (final concentration), regardless of the final concentration of the drug, and for the control, the untreated parasites. ICx (inhibitory concentration that inhibits parasite growth or enzymatic activity by x%) was calculated using the statistical module of SigmaPlot v11.0 software.
# In a step ahead, the leishmanicidal activity of the compounds on L. pifanoi axenic amastigotes and L. infantum promastigotes was evaluated. Axenic Leishmania amastigotes afford the appraisal of the leishmanicidal activity without the constrains imposed on the access of the compounds to intracellular amastigotes within the parasitophorous vacuole, as well as to preclude the interference of the compounds via host–parasite interface in the final activity. For that, the axenic line of L. pifanoi amastigotes belonging to the mexicana complex was chosen, as in this species the infectivity, antigenicity, and metabolic identity between axenic and intracellular amastigotes have been consistently validated.
# [3] = target: LdGSK-3s (Leishmania donovani, UniProt A6N857); test: Inhibition of recombinant LdGSK-3s with Kinase Glo; format: biochemical; settings: for IC50: recombinant LdGSK-3s, Kinase Glo
# Method: (§2) Extraction, purification, and evaluation of compounds against recombinant LdGSK-3s was carried out as described. For that, a recombinant LdGSK-3s with a His-tag was obtained as inclusion bodies, that were further solubilized, and purified by chromatography first on a Ni^2+ column an in a second step on a DEAE (diethylaminoethyl) ionic exchange column. Samples were made in duplicate, and assays were repeated at least three times. IC50 (inhibitory concentration that decreases enzymatic activity by 50%) was calculated using the statistical module of SigmaPlot v11.0 software. Evaluation of compounds against hGSK-3β was performed using human recombinant GSK-3β purchased from Millipore as described previously. Compounds were prepared as a 10 mM stock solution in DMSO.
# [4] = test system: mouse peritoneal macrophages (MPM); test: Cytotoxicity on mouse peritoneal macrophages (MTT reduction); format: cell-based; settings: for Selectivity Index (SI): IC50 MPM/IC50 axenic amastigotes; for IC50: mouse peritoneal macrophages, MTT reduction
# Method: Leishmania parasites were collected at late exponential growth phase by centrifugation at 1610× g at 4 °C. Elicited mouse peritoneal macrophages (MPM) were obtained from 8-week-old Balb/c mice through i.p. injection with 1 mL of 10% thioglycolate medium 72 h before extraction. Macrophages were obtained by peritoneal washing (10 mL PBS, 4 °C).
# as §1
# [5] = test system: L. donovani promastigotes; test: Sub G0/G1 population (propidium iodide flow cytometry); format: cell-based, Leishmania donovani; settings: 72 h
# Method: L. donovani promastigotes (2 × 10^6 cells/mL) in RPMI-HIFCS were incubated with each compound in 24-well plates for 72 h at 26 °C by duplicate. Next, compounds were removed by washing with HBSS-Glc (15,700× g, 4 min, 4 °C) and cells were resuspended in […] of HBSS-Glc, fixed and permeabilized by addition of 200 μL 70% cold EtOH and incubated overnight at 4 °C. Ethanol was removed by centrifugation and cellular pellets washed with HBSS-Glc. Finally, cells were resuspended in 500 μL HBSS-Glc with 20 μg/mL propidium iodide (PI) and 3 mg/mL Ribonuclease A, and incubated in darkness at r. t. for 30 min. PI fluorescence was measured in a Coulter XL EPICS flow cytometer (Beckman Coulter, Nyon, Switzerland) (λEXC = 488 nm, λEM = 620 nm).
# Each assay was repeated at least twice. Untreated cells were used as control for a standard cell cycle histogram, and Miltefosine (hexadecylphosphocholine) (15 μM) was used as control for an apoptosis-inducing respiratory inhibitor [51].
# Parasites were incubated with the corresponding drug for 72 h, followed by EtOH permeabilization, incubated with 3 mg/mL Ribonuclease A and stained with 20 μg/mL of propidium iodide (PI) before cytofluorometric analysis. (λEXC = 488 nm, λEM = 620 nm). The percentage of subG0/G1 population (enclosed within green bars) stands for degraded chromatin, associated with the apoptotic-like process. Miltefosine (hexadecylphosphocholine, HePc) at 15 μM was added as a control for induction of apoptosis.
# [6] = test system: L. donovani promastigotes; test: Leishmanicidal activity on promastigotes (MTT reduction), Table 1; format: cell-based; settings: Leishmania donovani
# [7] = test system: intracellular L. pifanoi amastigotes; test: Parasite load of macrophages infected with mCherry-L. pifanoi amastigotes; format: cell-based, Leishmania pifanoi; settings: 1 μM
# [8] = target: T1, hGSK-3β (Homo sapiens, UniProt P49841); test: Inhibition of human recombinant GSK-3β; format: biochemical; settings: read-out: percentage of inhibition of hGSK-3β
# T1 construct: purchased Millipore
# Method: as §2
# [9] = test system: L. donovani promastigotes; test: Mitochondrial membrane depolarization (Rhodamine 123 accumulation); format: cell-based, Leishmania donovani; settings: 3 μM (IC80), 4 h
# Chain of LdGSK-3s (A6N857 entry or part of it): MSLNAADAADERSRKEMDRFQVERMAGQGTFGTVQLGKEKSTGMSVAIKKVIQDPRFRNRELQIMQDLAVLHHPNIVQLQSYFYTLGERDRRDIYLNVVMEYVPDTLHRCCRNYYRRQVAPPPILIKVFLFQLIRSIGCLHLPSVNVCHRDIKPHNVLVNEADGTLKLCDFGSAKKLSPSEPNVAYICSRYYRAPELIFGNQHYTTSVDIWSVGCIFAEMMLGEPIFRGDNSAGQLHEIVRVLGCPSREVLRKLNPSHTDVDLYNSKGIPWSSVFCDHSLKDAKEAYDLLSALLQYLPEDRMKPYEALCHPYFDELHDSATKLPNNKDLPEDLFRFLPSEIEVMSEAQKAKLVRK
# T1 sequence (P49841 whole entry): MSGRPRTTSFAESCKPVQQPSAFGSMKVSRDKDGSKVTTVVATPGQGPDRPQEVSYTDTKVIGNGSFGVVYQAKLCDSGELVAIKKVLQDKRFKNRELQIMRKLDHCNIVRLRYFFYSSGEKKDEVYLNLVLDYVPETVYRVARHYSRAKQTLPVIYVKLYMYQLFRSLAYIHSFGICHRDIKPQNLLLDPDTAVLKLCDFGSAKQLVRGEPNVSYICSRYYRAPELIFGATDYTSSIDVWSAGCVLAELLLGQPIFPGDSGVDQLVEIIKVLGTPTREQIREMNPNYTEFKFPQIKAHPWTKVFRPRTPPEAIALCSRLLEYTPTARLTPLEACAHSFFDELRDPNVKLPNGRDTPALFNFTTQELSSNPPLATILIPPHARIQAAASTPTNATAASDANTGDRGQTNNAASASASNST
Compound,IC50 ([1]; Leishmania pifanoi),IC50 ([2]; Leishmania infantum),IC50 [3],Selectivity Index (SI) [4],IC50 ([4]; Peritoneal macrophage),further results
"O=C1C(Cl)=C(NCc2ccc(Cl)cc2)C(=O)c2ccccc21 [Compound 11, 2-Chloro-3-((4-chlorobenzyl)amino)-1,4-naphthoquinone]",> 25 µM,> 25 µM,> 10 µM,,,
"O=C1C(Cl)=C(Nc2ccc(Cl)cc2)C(=O)c2ccccc21 [Compound 12, 2-Chloro-3-((4-chlorophenyl)amino)-1,4-naphthoquinone]",> 50 µM,> 50 µM,> 10 µM,,,
"CC(C)(C)NC(=O)NC1=C(Cl)C(=O)c2ccccc2C1=O [Compound 14, 1-(tert-Butyl)-3-(3-chloro-1,4-naphthoquinone-2-yl)urea]",2.1 ± 0.6 µM,1.4 ± 0.4 µM,> 10 µM,0.6,1.3 ± 0.3 µM,melting point: 195 to 196 °C
"COC(=O)NC1=CC(=O)c2ccccc2C1=O [Compound 16, Methyl-(1,4-naphthoquinone-2-yl)carbamate]",1.7 ± 0.2 µM,4.1 ± 0.8 µM,> 10 µM,2.2,3.8 ± 0.3 µM,melting point: 201 to 202 °C
"CCOC(=O)NC1=CC(=O)c2ccccc2C1=O [Compound 17, Ethyl-(1,4-naphthoquinone-2-yl)carbamate]",1.7 ± 0.1 µM,4.5 ± 0.7 µM,> 10 µM,2.5,4.2 ± 0.2 µM,melting point: 162 to 163 °C
"CCCCCCCCCCCCCCCCOP(=O)([O-])OCC[N+](C)(C)C [HePc, hexadecylphosphocholine, reference compound]",,,,,,"percentage of subG0/G1 population ([5]; 15 μM, control for induction of apoptosis): 36.8 ± 1.1%"
"O=C1Nc2ccc(S(=O)(=O)O)cc2C1=C1Nc2ccccc2C1=NO [Indirubin-3′-monoxime-5-sulphonic acid, reference compound]",,,2.4 µM,,,
O=C1C=C(O)C(=O)c2c(O)c(Cl)c(Cl)c(O)c21 [MBC-10],11.2 ± 2.5 µM,10.5 ± 1.2 µM,~10 µM,,,IC50 [6]: 10.5 ± 1.2 µM; inhibition at 10 µM ([3]; at 10 μM): 45.7%
COC(=O)NC1=C(Cl)C(=O)c2ccccc2C1=O [MBC-132],0.51 ± 0.01 µM,1.51 ± 0.02 µM,2.5 ± 0.1 µM,5.1,2.6 µM,IC50 [6]: 1.51 ± 0.02 µM; decrease in parasite load [7]: 39.1%; percentage of subG0/G1 population ([5]; 3 μM (IC80)): 63.2 ± 0.3%; inhibition at 10 µM [8]: 19%; decrease in Rh123 accumulation [9]: ~70%
"N-(1,4-Naphthoquinone-2-yl) phenylacetamide [Compound 20]",,,> 10 µM,,,IC50 [1]: 3.2 ± 0.1 µM; IC50 [4]: 7.5 ± 0.6 µM; IC50 [2]: 7.1 ± 2.1 µM
"N-(1,4-Naphthoquinone-2-yl)acetamide [Compound 18]",,,> 10 µM,,,IC50 [1]: 1.2 ± 0.1 µM; IC50 [4]: 4 ± 0.2 µM; IC50 [2]: 4.5 ± 0.5 µM
"N-(1,4-Naphthoquinone-2-yl)propionamide [Compound 19]",,,> 10 µM,,,IC50 [1]: 1.8 ± 0.3 µM; IC50 [4]: 4.3 ± 0.3 µM; IC50 [2]: 5.9 ± 1.8 µM
